Source: PubChem BioAssay AID652107 (NMMLSC, 2013)

Tested on: human granulocytes, fMLF-stimulated F-actin, FITC-phalloidin flow
Test: actin polymerization inhibitors in human granulocytes – cell-based, primary human granulocytes, FITC-phalloidin flow cytometry, mechanism study for Cdc42 probe extension project (AID 652107)
Conditions: at 10 µM; hits give high values

Structure (SMILES): COc1ccc(C2CC(c3ccccc3)=NN2c2ccc(S(N)(=O)=O)cc2)cc1 (stereo unspecified)
- inhibition: 10%
